{"source": "patent US7330794B2", "about": "“Water monitoring system using bivalve mollusks” (Aqueous Solutions, Inc., priority 2000, dated 2008)", "test_system": "bivalve mollusks", "assay": "Water screening with bivalve mollusks: shell gape and Degree of Alarm (DOA) on toxicant exposure", "assay_type": "in vivo", "method": "Further calibration of the system is performed after one or more mollusk chambers are properly installed. The digital circuitry or computer 39 then monitors the gape of the mollusk during approximately the first three days after installation. From the gape values derived during this period, the computer derives a natural maximum gape value for the individual mollusk. Subsequent calculations based on output from the mollusk chamber 15 are based on the percentage of gape, i.e., the percentage of the maximum gape output value that the presently detected gape output value represents.\nWhen the system 3 contains a number of mollusk chambers 15, the individual mollusk percentage gape data for all of the mollusks of the system is totaled, and the average percentage gape value calculated periodically per sampling interval by computer 38. This mean data value Gi is the variable used as the mollusk output data for determining if toxicants are present in the water being screened.\nIn the present specification, Gi means the current average mollusk gape data, Gi−i means the most recent earlier mollusk output value, Gi−2 the next earlier mollusk output variable, etc. The oldest of the gape values is Gi−n+1. Preferably, the set of data values Gi−n+1 to Gi are stored in a FIFO (first-in, first-out) stack data structure in the computer doing the analysis. The stack acts as a shift register, shifting earlier data values as the new data value Gi is acquired. Preferably the value of n is 30, and the data values G are acquired every half-second.\nAccording to an aspect of the invention, the variance over time of the gape values is one of the best statistical indicators of the pumping of the mollusk. By the term variance, what is meant is a determination of the variability of the gape values from a mean value, which may be determined or expressed using a variety of functions. Particularly preferred, however, is the classical calculation of variance as:\nIn a basic method for toxicant detection, DOA is calculated continuously using the formula DOA=(V·|R|)/M wherein V is the mean variance in gape over a recent period of time, preferably 30 seconds, R is the mean regression of the gape over the period (regression herein meaning the slope of the best-fit line through the data values of the time period). M may be the traveling mean as defined above, or may be the mean gape taken over another longer period, preferably about one hour.\nAn implementation of this method is shown by the graphs of FIGS. 7 to 10. Water being screened by a system as described previously was loaded with sulphuric acid, resulting in a drop in pH as shown in the graph of FIG. 7.\nWhen the variance is below this threshold value, a first, less sensitive function of the gape data values is used to calculate the DOA value. Such a function might be a linear calculation such as DOA=(1−Gi)*10 which would yield a DOA value between 0 and 10, with 10 corresponding to the mollusk completely closing its shell and strongly indicating presence of toxicant.\nWhen the variance value is greater than or equal to the threshold value, the DOA value may be calculated by a different function which amplifies the calculation from the closing of the shell during the period of high variance. Particularly preferred is a more sensitive high-variance function: DOA=f(Gi)+V/K\nAn implementation of such a DOA method using a Logistic calculation, with a variance factor added for variances over 50, is illustrated by the graphs of FIGS. 12 to 16.\nIn this example, a system as in Example 3 was used, only the toxicant introduced was copper (as aqueous CuSO4), as shown in FIG. 17.", "data": [{"smiles": "[Cl-].[Na+]", "note": "[chloride, NaCl]", "values": [{"measurement": "DOA output", "setting": "chloride, Logistic calculation with variance factor for variances over 50, at 0.5 hours, chloride concentration still relatively low, FIG. 16", "value": "greater than 5"}, {"measurement": "raw gape data, decreasing over time", "setting": "gradually increasing concentration of chloride (aqueous NaCl), FIG. 13", "value": "less than 40 % of normal maximum gape"}]}, {"smiles": "O=S(=O)([O-])[O-].[Cu+2]", "note": "[copper, CuSO4]", "values": [{"measurement": "gape when DOA exceeded 8", "setting": "copper (aqueous CuSO4), between 0.5 and 1.0 hours", "value": 50, "unit": "%"}, {"measurement": "DOA values", "setting": "copper (aqueous CuSO4), system as in Example 3, between 0.5 and 1.0 hours, copper concentration still relatively low, FIG. 21", "value": "exceed 8 out of a possible 10"}]}, {"smiles": "O=S(=O)(O)O", "note": "[sulphuric acid]", "values": [{"measurement": "DOA (Degree of Alarm) values, spike", "setting": "sulphuric acid, DOA=(V·|R|)/M, appears before 200 minutes, FIG. 10", "value": "greater than 100"}, {"measurement": "percentage gape at the variance spike", "setting": "sulphuric acid, variance spikes shortly before 200 minutes, FIG. 9", "value": "≤ 40", "unit": "%"}, {"measurement": "average percentage gape of the mollusks", "setting": "water loaded with sulphuric acid (pH drop), shortly after 200 minutes, FIG. 8", "value": "less than 10 % of the normal maximum"}]}]}
